{"source": "patent US20120053056A1", "about": "“COMPOSITIONS AND METHODS FOR IMPROVING THE COMPATIBILITY OF WATER SOLUBLE HERBICIDE SALTS” (DOW AGROSCIENCES LLC, priority 2010, published 2012)", "key": {"[1]": {"assay": "Spray solution compatibility (crystal formation) of 2,4-D and glyphosate salts with 2% AMS and added crystal inhibitor", "type": "physicochemical", "conditions": "2% AMS, 342 ppm hardness water, 24 h room temperature", "description": "Spray solutions were formed from aqueous concentrates of 2,4-D choline (prepared by mixing equimolar amounts of 2,4-D acid and choline hydroxide in water) or 2,4-D DMA and various glyphosate salts (potassium, isopropyl ammonium or dimethyl ammonium) at various concentrations (weight percent acid equivalent basis) of the respective active ingredients with and without added polyethylenimine or polyvinylamine crystal inhibitor (CI)."}, "[2]": {"assay": "On-set pH of crystallization of aqueous 2,4-D potassium solution with added crystal inhibitor (CI), pH lowered with 0.2 N sulfuric acid", "type": "physicochemical", "conditions": "3% ae 2,4-D K salt in water; CI 0.2 wt %"}}}
{"smiles": "NCCNCCNCCNCCN", "note": "[TEPA, tetraethylenepentamine]", "values": [{"measurement": "Result (crystals observed 24 hours after preparation of tank mixture)", "setting": "[1]; 2,4-D choline 1.8 wt % ae + WeatherMax 1.8 wt % ae, CI 0.2%", "value": 1}, {"measurement": "Result (crystals observed 24 hours after preparation of tank mixture)", "setting": "[1]; 2,4-D choline 1.8 wt % ae + WeatherMax 1.8 wt % ae, CI 0.4%", "value": 0}, {"measurement": "Result (crystals observed 24 hours after preparation of tank mixture)", "setting": "[1]; 2,4-D choline 1.8 wt % ae + WeatherMax (glyphosate potassium) 1.8 wt % ae, CI 0.1%", "value": 3}, {"measurement": "On-set pH of Crystallization", "setting": "[2]", "value": 5.68}]}
